Results as given in ChEMBL document CHEMBL4342525, “Synthesis and Biochemical Evaluation of Noncyclic Nucleotide Exchange Proteins Directly Activated by cAMP 1 (EPAC1) Regulators” (J Med Chem, 2020).
Calls of active or inactive are those of the source. No cut-off for these calls is given here.

Assays:
[1] = biological target: T1, Rap guanine nucleotide exchange factor 3 (Homo sapiens) (UniProt O95398); assay: Binding affinity to GST-tagged recombinant EPAC1 CNBD (169 to 318 residues) (unknown origin) expressed in Escherichia coli BL21 Star (DE3) assessed as relative fluorescence intensity incubated for 4 hrs by 8-NBD-cAMP competition binding assay relative to control; design: concentration or dose not given beside the values
T1 sequence (whole entry): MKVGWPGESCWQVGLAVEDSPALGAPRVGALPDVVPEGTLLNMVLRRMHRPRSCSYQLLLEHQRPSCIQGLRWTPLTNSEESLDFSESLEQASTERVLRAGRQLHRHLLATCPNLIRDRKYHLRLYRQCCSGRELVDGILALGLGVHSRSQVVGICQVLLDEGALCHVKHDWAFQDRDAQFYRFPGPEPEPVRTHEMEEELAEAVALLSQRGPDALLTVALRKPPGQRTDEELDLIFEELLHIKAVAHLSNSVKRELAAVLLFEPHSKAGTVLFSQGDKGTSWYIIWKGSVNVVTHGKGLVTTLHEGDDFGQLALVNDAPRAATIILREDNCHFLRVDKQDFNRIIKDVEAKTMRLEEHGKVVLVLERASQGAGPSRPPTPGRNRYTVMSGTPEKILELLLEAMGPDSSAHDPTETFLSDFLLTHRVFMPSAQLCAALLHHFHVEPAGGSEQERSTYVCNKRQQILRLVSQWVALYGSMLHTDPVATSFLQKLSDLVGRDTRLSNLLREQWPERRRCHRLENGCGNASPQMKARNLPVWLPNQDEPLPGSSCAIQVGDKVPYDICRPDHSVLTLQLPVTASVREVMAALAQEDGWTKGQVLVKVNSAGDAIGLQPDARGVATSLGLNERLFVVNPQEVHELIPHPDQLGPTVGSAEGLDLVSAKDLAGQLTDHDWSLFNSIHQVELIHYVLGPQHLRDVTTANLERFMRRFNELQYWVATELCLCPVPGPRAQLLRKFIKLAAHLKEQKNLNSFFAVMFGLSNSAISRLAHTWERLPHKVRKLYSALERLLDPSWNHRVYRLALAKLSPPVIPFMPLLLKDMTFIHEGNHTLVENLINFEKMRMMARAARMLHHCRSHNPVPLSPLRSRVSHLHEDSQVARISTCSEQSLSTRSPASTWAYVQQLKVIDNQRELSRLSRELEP

[2] = Binding affinity to GST-tagged recombinant EPAC1 delta-DEP mutant (149 to 881 residues) (unknown origin) expressed in Escherichia coli BL21 Star (DE3) incubated for 4 hrs by 8-NBD-cAMP competition binding assay; design: species or system Homo sapiens
[3] = biological target: T2, Rap guanine nucleotide exchange factor 3 (Homo sapiens, UniProt O95398); assay: Activation of recombinant EPAC1 (149 to 881 residues) (unknown origin) assessed as stimulation of dissociation of fluorescent MANT-GDP from recombinant Rap1b in presence of excess nonfluorescent nucleotides by fluorescence based in-vitro GEF assay
T2 sequence (O95398 whole entry): T1 sequence (whole entry)

[4] = biological target: T1, Rap guanine nucleotide exchange factor 3 (Homo sapiens); assay: Activation of recombinant EPAC1 (149 to 881 residues) (unknown origin) assessed as stimulation of dissociation of fluorescent MANT-GDP from recombinant Rap1b up to 100 uM in presence of excess nonfluorescent nucleotides by fluorescence based in-vitro GEF assay relative to cAMP
[5] = biological target: T1, Rap guanine nucleotide exchange factor 3 (Homo sapiens); assay: Activation of EPAC1 (unknown origin) expressed in U2OS cells at 100 uM pre-incubated for 10 mins before 8-pCPT-2'-O-Me-cAMP stimulation for 10 mins using GST-RalGDS-RBD by Western blot analysis based active GTP-bound Rap1 pull down assay; type: cell-based
[6] = biological target: T1, Rap guanine nucleotide exchange factor 3 (Homo sapiens); assay: Activation of recombinant EPAC1 (149 to 881 residues) (unknown origin) assessed as stimulation of dissociation of fluorescent MANT-GDP from recombinant Rap1b at 10 uM in presence of excess nonfluorescent nucleotides by fluorescence based in-vitro GEF assay relative to cAMP
[7] = Activation of PKA in human U2OS cells stably transfected with EPAC1 assessed as increase in VASP phosphorylation at 100 uM by Western blot analysis; type: cell-based
[8] = biological target: T2, Rap guanine nucleotide exchange factor 3; assay: Binding affinity to GST-tagged recombinant EPAC1 CNBD (169 to 318 residues) (unknown origin) expressed in Escherichia coli BL21 Star (DE3) incubated for 4 hrs by 8-NBD-cAMP competition binding assay
[9] = biological target: T1, Rap guanine nucleotide exchange factor 3 (Homo sapiens); assay: Activation of EPAC1 (unknown origin) expressed in U2OS cells at 100 uM incubated for 10 mins using GST-RalGDS-RBD by Western blot analysis based active GTP-bound Rap1 pull down assay; type: cell-based
[10] = biological target: T1, Rap guanine nucleotide exchange factor 3 (Homo sapiens); assay: Activation of EPAC1 in HUVEC assessed as reduction in IL-6-promoted signaling by measuring pSTAT3 protein levels at 100 uM pre-incubated for 30 mins before IL6 and sIL6Ralpha stimulation for 5 hrs by Western blotting analysis; type: cell-based
[11] = biological target: T1, Rap guanine nucleotide exchange factor 3 (Homo sapiens); assay: Activation of EPAC1 in HUVEC assessed as reduction in IL-6-promoted signaling by measuring pERK protein levels at 100 uM pre-incubated for 30 mins before IL6 and sIL6Ralpha stimulation for 5 hrs by Western blotting analysis; type: cell-based
[12] = biological target: T1, Rap guanine nucleotide exchange factor 3 (Homo sapiens); assay: Activation of EPAC1 in HUVEC assessed as reduction in IL-6-promoted signaling by measuring VCAM1 protein expression at 100 uM pre-incubated for 30 mins before IL6 and sIL6Ralpha stimulation for 5 hrs by Western blotting analysis; type: cell-based
[13] = biological target: T1, Rap guanine nucleotide exchange factor 3 (Homo sapiens); assay: Activity at EPAC1 in HUVEC assessed as promotion of IL-6-promoted signaling by measuring increased pAKT protein levels at 100 uM pre-incubated for 30 mins before IL6 and sIL6Ralpha stimulation for 5 hrs by Western blotting analysis; type: cell-based
[14] = biological target: T1, Rap guanine nucleotide exchange factor 3 (Homo sapiens); assay: Activation of recombinant EPAC1 (149 to 881 residues) (unknown origin) assessed as stimulation of dissociation of fluorescent MANT-GDP from recombinant Rap1b at 500 uM in presence of excess nonfluorescent nucleotides by fluorescence based in-vitro GEF assay relative to cAMP
[15] = biological target: T1, Rap guanine nucleotide exchange factor 3 (Homo sapiens); assay: Activity at recombinant EPAC1 (149 to 881 residues) (unknown origin) assessed as reduction in cAMP-induced stimulation of dissociation of fluorescent MANT-GDP from recombinant Rap1b at 500 uM in presence of excess nonfluorescent nucleotides by fluorescence based in-vitro GEF assay
[16] = biological target: T1, Rap guanine nucleotide exchange factor 3 (Homo sapiens); assay: Activation of EPAC1 in HUVEC assessed as reduction in IL-6-promoted signaling by measuring pAKT protein levels at 100 uM pre-incubated for 30 mins before IL6 and sIL6Ralpha stimulation for 5 hrs by Western blotting analysis; type: cell-based
[17] = biological target: T1, Rap guanine nucleotide exchange factor 3 (Homo sapiens); assay: Activation of EPAC1 in HUVEC assessed as reduction in IL-6-promoted signaling by measuring ICAM1 protein expression at 100 uM pre-incubated for 30 mins before IL6 and sIL6Ralpha stimulation for 5 hrs by Western blotting analysis; type: cell-based
[18] = biological target: T1, Rap guanine nucleotide exchange factor 3 (Homo sapiens); assay: Activation of EPAC1 in HUVEC assessed as reduction in IL-6-promoted signaling by measuring SELE protein expression at 100 uM pre-incubated for 30 mins before IL6 and sIL6Ralpha stimulation for 5 hrs by Western blotting analysis; type: cell-based

| Activity [1] | IC50 [2] | EC50 [3] | Activity [4] | Activity [5] | Activity [6] | Activity [7] | IC50 [8] | Activity [9] | Activity [10] | Activity [11] | Activity [12] | Activity [13] | Activity [14] | Activity [15] | Activity [16] | Activity [17] | Activity [18] | Compound |
| --- | --- | --- | --- | --- | --- | --- | --- | --- | --- | --- | --- | --- | --- | --- | --- | --- | --- | --- |
| 14% | 500 nM | 5 µM | Active | Active | Active | Not Active |  |  |  |  |  |  |  |  |  |  |  | COc1ccc2ccc(OCC(=O)NS(=O)(=O)c3ccc4ccccc4c3)cc2c1 |
| 61% | 6700 nM |  |  |  |  |  | 9.2 to 12 µM | Active | Active | inactive | Active | Active |  |  |  |  |  | Cc1ccc(S(=O)(=O)NC(=O)COc2ccc3ccccc3c2)c(C)c1 |
| 7% | 600 nM | 5 µM |  | Active | Active | Not Active |  | Active | inactive | inactive | inactive |  | 2% | Active | inactive | inactive | inactive | COc1ccc2ccc(OCC(=O)NS(=O)(=O)c3ccc(N)cc3OC)cc2c1 |
| 56% |  |  |  |  | Active | Not Active | 4.6 µM | Active | Active | inactive | Active | Active |  |  |  | inactive | inactive | Cc1cc(Nc2ncccc2C(F)(F)F)cc(S(=O)(=O)NC(=O)COc2ccc3ccccc3c2)c1 |
